Measurements: patent publication US20240197761A1, “FUCOSYLATION AND IMMUNE MODULATION IN CANCER” (H. LEE MOFFITT CANCER CENTER AND RESEARCH INSTITUTE, INC., priority 2021, published 2024)
“Also recorded” adds a separate entry of the source.

What was measured:
[1] = system: MDSCs co-cultured with T cells; experiment: MDSC immunosuppression of T cell proliferation (Cell Trace Violet) and IFNγ release/production in co-culture; type: cell-based, mouse; settings: for T cell proliferation with pretreated splenic MDSCs: FIG. 3F; for IFNγ release / production by T cells with modulated MDSCs: FIG. 3G, FIG. 8B
Protocol: Tlhe myeloid cells, which were stimulated to imlmuno, suppressive MDSCs using GM/G-CSF, were divided into 3 treatment groups: (i) Treatment±250 uM L-fuc prior, duri ng, and after GM/G-CSF stimulation. Treatment±250 uM L-fuc during and after GM/G-CSF stimulation. (ii) Treatment±250 uM L-fuc only after GM/G-CSF stimulation. Greiss assay timepoints reier to hours after initial dose of L-fuc regardless of when cells were treated, L-fuc abrogated their ability to glenerate NO. […] We subsequently co-cultured the modulated MDSCs wilh T cells, which were then activated or not with CD3/CD28 beads and measured for IFNψ production. *. p •<0.05

[2] = system: SW1 tumors; experiment: NSG melanoma model: SW1 tumor growth in immunodeficient mice; type: in vivo
Source text: All animals were housed at the Vincent A. Stabile Research building animal facility at H. Lee Moffitt Cancer Center & Research Institute, which is fully accredited by the Association for Assessment and Accreditation of Laboratory Animal Care International (AAALAC, #434), and are managed in accordance with the Guide for the Care and Use of Laboratory Animals (“The Guide”), the Animal Welfare Regulations Title 9 Code of Federal Regulations Subchapter A, “Animal Welfare”, Parts 1-3 (AWR), the Public Health Service Policy on Humane Care and Use of Laboratory Animals (PHS Policy), and by the USF Institutional Animal Care and Use Committee's Principles and Procedures of Animal Care and Use (IACUC Principles). The experiments and protocols detailed in this study received institutional approval by the Moffitt IACUC (RIS00001625). Four-to-six-week-old female C3H/HeN and male C57BL6 mice were purchased from Charles Rivers Laboratories for the indicated experiments. Four-to-six-week-old male NSG mice from the Lau laboratory breeding colony were used for the indicated experiments. Power calculations were used to determine mouse cohort sizes to detect significant changes in tumor sizes. […] Mouse tumor volumes were measured using length, width and depth divided by 2. […]

[3] = system: SW1 tumors; experiment: Anti-PD-1 mouse model, SW1; type: in vivo, C3H/HeN mice
Source text: FIGS. 21A and 21B Administration of combination L-fucose and anti-PD-1 suppresses tumors and increases intra-tumoral CD4+T central and effector memory cells (a) Volumetric growth curves for SW1 tumors in C3H/HeN mice (left) and SM1 tumors in C57BL/6 mice (right) fed L-fucose (LF) and treated with PBS (control) or anti-PD-1. (concurrent initiation of LF anti-PD1 (▾)). The tumor growth curves are means±SEM from ≥7 mice per group. (b) Volumetric growth curves for SM1 tumors in C57BL/6 mice fed ±L-fucose (LF) and treated with PBS (control) or anti-PD-1 (PD-1). (concurrent initiation of LF±PD1 (▾)). The tumor growth curves are means±SEM from ≥7 mice per group. *=p<0.05. At Day 7 (prior to administration of LF or PD1), Day 21 (endpoint for tumors of control-treated mice), Day 31 (endpoint for tumors of LF-treated mice), Day 63 (endpoint for tumors of PD1-treated mice), the primary tumors (Tumor) and draining lymph nodes (LN) of 4-5 mice per treatment group were analyzed by flow cytometry for intratumor levels of CD4+ and CD8+T subpopulations (naive/terminal, stem central/central/effector memory) and dendritic cell (DC) subpopulations (cDC1, cDC2, and monocyte-derived DC (moDC)) as in FIG. 15. Proportions of CD4+, CD8+, and DC subpopulations in each organ at each timepoints are represented by the color-coded pie charts (each pie chart represents 4-5 mice). […]

[4] = system: TUBO (mouse BC); experiment: TUBO breast cancer growth in immunodeficient mice ± L-fuc; type: in vivo; settings: immunodeficient NSG mice ± 500 mM L-fuc (FIG. 3A)

## C[C@H](O)[C@@H](O)[C@@H](O)[C@H](O)C=O [L-fucose]
[1]
  T cell proliferation with pretreated splenic MDSCs: increased
  IFNγ release / production by T cells with modulated MDSCs: increased
[1]; listed as L-fuc
  T cell proliferation with pretreated splenic MDSCs: decreases splenic MDSC immunosuppression
  IFNγ release / production by T cells with modulated MDSCs: significantly stimulated; also recorded: decreases splenic MDSC immunosuppression
[2]
  SW1 tumor growth: did not reduce
[3]
  efficacy of anti-PD1 in combination with oral L-fuc: did not enhance
[4]
  TUBO tumor growth: not effected
